# Experimental data published in patent US20080131867A1, “Method for Determining the Effectiveness of a Treatment for Preeclampsia” (priority 2006, published 2008).
# How the values were obtained:
# [1] = test system: PP13 release from placenta explants; assay: Therapeutic effectiveness on PP13 release from standardized placenta explants in presence of patient serum (indirect method); type: cell-based, human
# Text: Scenario 1: Simple Direct Tailoring with a Diversity of Drugs. • We have standardized culture conditions for first trimester explants or explants obtained after delivery. • Explants could be the ones made of patients after delivery or those obtained by Chorionic villi sampling (CVS) at gestational weeks 10-12 or other placenta biopsies as the case may be. • Standardization means defined median viability index, protein content in the explant, total protein released to the medium, PP13 content in the explant and PP13 release from the explant, among others. • Drug effect in-vitro is the effect of drug applied to the culture medium on PP13 release from the placenta explant after 24 hr to 7 days. The effect is compared to the baseline release as measured without the drug. • The Therapeutic Index is thus the in-vitro relative effectiveness of the drug when applied to explants as measured by the difference between PP13 release with (PP13D1) and without (PP130) the drug by the equation: (PP130−PP13D1)/PP130, after normalizing to viability, protein content etc as described above, given all other parameters are the same. • It is important to note that in the first trimester (gestational weeks 6-13) PP13 in diseased patient is lower than Normal. Thus the therapeutic index is to return PP13 release is calculated as drugs that elevate PP13 release. In the third trimester (gestational week 26 and above), PP13 is higher in preeclamptic patients than normal. Thus the therapeutic index is decreasing PP13 release back to Normal. • According to the in-vitro therapeutic index one drug or a drug combinations are selected for the in-vivo interventional medication treatment. • Follow up: after selecting the drug to be administrating to the patient, bi-weekly blood testing follow up is recommended to be carried out by measuring the PP13 in the blood and calculating
# If so, drugs that appears beneficial to standardized culture explants wouldn't work when applied together with the patient samples. It can be seen that the serum from the patient at high risk for preeclampsia caused serious inhibition of many of the types of treatment.
# [2] = test system: PP13 release from placental (villous) explants; assay: PP13 release from placental (villous) explants cultured 48 hours (FIGS. 7-11); type: cell-based, human
# Description: The tissue of each woman was divided into 16 different portions, exposed each to diversified conditions and cultured for 48 hours;
# The following results were obtained with placental (villous) explants from 16 cases of normal women, 12 cases of preeclampsia and 3 cases of HELLP women, which were cultured in DMEM/F12 for 48 hours at 6% or 20% O2. Conditioned media was collected after culture and tested for total protein and PP13. PP13 release was related to total protein.
# The explants tested in Example 6 were retested using, in addition to the two oxygen levels, two different levels of magnesium, 0.7 mM and 1.4 mM.
# Note that the latter combination also affected the HELLP cases. […]
# [3] = test system: PP13 release from cultured chorionic villi; assay: PP13 release from cultured chorionic villi of GW 9-10 (48 hr culture, ELISA); type: cell-based, human; conditions: for PP13 (pg/ml) release: 48 hr
# Description: From left to right, the explants are shown at transfer (6 hours) and after 36 hr in culture. Cultures are grown in conditioned medium. After 48 hr in culture, the supernatant is collected, centrifuged and the […] is diluted in PBS and checked for the concentration of PP13 by sandwich ELISA using PP13 standards to calibrate the reaction OD to PP13 concentration. The PP13 level may be normalized to the gestational age according to the linear regression of the total points and to the protein level of the explant; […] The placenta cells/explants were cultured for 48 hr and PP13 was measured in the culture medium by ELISA (in the same manner as described in FIG. 1).
# PP13 [4] = assay: Allocation of high-risk women to serum PP13 quartiles after low dose aspirin; type: in vivo, human; conditions: for Frequency of 1st quartile cases / Frequency of 2nd quartile cases / Frequency of 3rd quartile cases: high-risk women
# Description: (§1) Unless otherwise indicated, in all experiments, PP13 was measured (blinded to pregnancy outcome) in maternal venous serum by solid-phase sandwich ELISA assay. The PP13 level was calibrated according to standard curves prepared from calibrated standards of recombinant PP13. Concentrations are given in pg PP13/ml serum.
# First trimester PP13 could serve as a measure to assess the risk for a later development of preeclampsia. According to FIG. 2 and Table 1, in the first trimester, the majority of the women who will go on to develop preeclampsia have very low levels of PP13 while most women who will have a normal outcome have higher PP13 values. In one study summarized in Table 2 and FIG. 3, the PP13 level was measured at 8 weeks of gestation from 50 cases who went on to develop preeclampsia and in 290 cases with normal outcome. The method of multiples of the gestation-specific median (MoM) was used, and at MoM cutoffs of 0.45, the false positive rate was 10% and the sensitivity 87%. This means that 43 out of 50 preeclampsia cases and 29 out of 290 normal were identified as being at high risk. Thus, while the risk for PP13 in the population is 5%, in the group with PP13 below 0.45, the frequency of preeclampsia was 59% (more than 10 times above the frequency in the population not tested).
# Sensitivity and specificity were calculated from the receiver operating characteristic (ROC) analysis based on the indicated MoM cutoffs of 0.45. Sensitivity value is provided in Table 2 in percentile for 10% false positive rate. The odds ratio for developing the pathology was determined by two methods of calculations:
# 1) modeling, that calculate the Odds ratio as already described above after taking into consideration the prevalence of the pathology in the population, and
# 2) the quartile assessment procedure, of calculating of the odds ratio for the development of preeclampsia based on the comparison of PP13 in the lowest quartile (25%) versus PP13 in the third quartile (75th percent).
# (§2) If in the period specified above a medication is used, it is anticipated that it will bring a woman's PP13 level to the 2nd or 3rd or even the 4th quartile, corresponding to their reduced likelihood of developing preeclampsia. In the example described in Table 2, women with elevated risk to develop preeclampsia were orally treated from GW8 with a dose of […] aspirin (“low dose aspirin”) for either 2 or 3 weeks. […] Accordingly, women who were treated were anticipated to have lower risk to develop preeclampsia and their outcome should also be improved.
# (§3) In the study shown in Table 2, of 150 women tested as being at high risk in the 8th week, 50 were not treated, 50 were treated with aspirin for two weeks and 50 were treated for 3 weeks. […] The calculation of their anticipated risk was reduced accordingly.
# Sensitivity in percentile values are shown when the specificity was fixed to 90% (95% CI: 86%-93%), corresponding to having […] cases of false positives (10%).
# [5] = test system: women with elevated risk to develop preeclampsia; assay: Delivery outcome of high-risk women treated with low dose aspirin; type: in vivo, human; conditions: for Outcome: Normal (number of women) / Outcome: Preeclampsia (number of women): 50 treated
# Description: as §2, §3
# PP13 [6] = assay: Serum PP13 values and 1st-to-2nd trimester slope in women treated with vitamin E (FIG. 4); type: in vivo, human
# Description: as §1
# The slope may be calculated as follows:
# Slope=(PP13(2nd trimester)−PP13(1st trimester)/GW(2nd trimester)−GW(1st trimester)).
# Normal vs. preeclampsia slopes are shown in FIG. 4, and the cutoff between normal and preeclampsia to reach 80% sensitivity is a slope of 3.5. The slope helps to further verify the risk for preeclampsia.
# If after establishing the risk by two tests the women at high risk are treated daily by administering the anti-oxidant vitamin E, the treated women have a lower slope (FIG. 4). From the relatively large confidence level one can see that not all women were affected in the same way. Thus, the approach can be further used to enable one to see how the slope can be reduced by medications and its correlation to the reduced risk to develop the pathology, thereby considering discontinuing the treatment, elevating the drug level or selecting a different treatment for individual patients. The combined and contingent approaches indicate that multiple testing is necessary only for women at risk whereas low risk patients may avoid repeated testing.
# [7] = applied with serum from a Normal Patient
# [8] = applied with serum from a Patient at high risk for preeclampsia
compound,measurement,setting,value
"[Cl-].[Cl-].[Mg+2] [Magnesium, MgCl2]",Therapeutic Effectiveness on PP13 release from placenta explants,[1]; [7],50%
same,Therapeutic Effectiveness on PP13 release from placenta explants,[1]; [8],20%
same,Effect on PP13 release,"[2]; HELLP explants, hyperoxia (20%), increase in Mg (1.4 mM)",elevated release of PP13
same,Effect on PP13 release,"[2]; HELLP explants, normoxia (6%), elevated Mg (1.4 mM)",elevated release of PP13
same,Effect on PP13 release,"[2]; explants from normal pregnant women, elevated oxygen (20%) and MgCl2 (1.4 mM)",not affected
same,Effect on PP13 release,"[2]; preeclamptic explants, magnesium 1.4 mM in 6% oxygen",not in 6% oxygen
same,Effect on PP13 release,"[2]; preeclamptic explants, magnesium 1.4 mM in 20% oxygen",brought back to the normal level
"O=C1O[C@H]([C@@H](O)CO)C(O)=C1O [Vitamin C, vitamin C]",Increase of PP13 release with vitamin C vs. without,"[3]; 3 high risk women, 6% oxygen, 48 hours incubation",3-4 times
same,PP13 (pg/ml) release,"[3]; Case 1, normal risk, 6% oxygen, with vitamin C","14,300 pg/ml"
same,PP13 (pg/ml) release,"[3]; Case 1, normal risk, 20% oxygen, with vitamin C",14990 pg/mL
same,PP13 (pg/ml) release,"[3]; Case 2, normal risk, 6% oxygen, with vitamin C","15,390 pg/ml"
same,PP13 (pg/ml) release,"[3]; Case 2, normal risk, 20% oxygen, with vitamin C","15,300 pg/ml"
same,PP13 (pg/ml) release,"[3]; Case 3, high-risk (preeclampsia), 6% oxygen, with vitamin C","12,030 pg/ml"
same,PP13 (pg/ml) release,"[3]; Case 3, high-risk (preeclampsia), 20% oxygen, with vitamin C","5,100 pg/ml"
same,PP13 (pg/ml) release,"[3]; Case 4, high-risk (preeclampsia), 6% oxygen, with vitamin C","9,230 pg/ml"
same,PP13 (pg/ml) release,"[3]; Case 4, high-risk (preeclampsia), 20% oxygen, with vitamin C","4,421 pg/ml"
same,PP13 (pg/ml) release,"[3]; Case 5, high-risk (preeclampsia), 6% oxygen, with vitamin C",15760 pg/mL
same,PP13 (pg/ml) release,"[3]; Case 5, high-risk (preeclampsia), 6% oxygen, with vitamin C, listed as vitamin C","15,790 pg/ml"
same,PP13 (pg/ml) release,"[3]; Case 5, high-risk (preeclampsia), 20% oxygen, with vitamin C","8,100 pg/ml"
same,Additional effect of vitamin C on PP13 release under 20% oxygen,"[3]; high risk women, 20% oxygen (hyperoxia)",no additional effect
"CC(=O)Oc1ccccc1C(=O)O [Aspirin, salicylic acid (aspirin)]",Odds ratio (by modeling) for developing preeclampsia,PP13 [4]; 14 days aspirin,5.9
same,Odds ratio (by quartiles) for developing preeclampsia,PP13 [4]; 14 days aspirin,5.6
same,Frequency of 1st quartile cases,PP13 [4]; 14 days aspirin,20/50
same,Frequency of 2nd quartile cases,PP13 [4]; 14 days aspirin,24/45
same,Frequency of 3rd quartile cases,PP13 [4]; 14 days aspirin,5/50
same,Odds ratio (by modeling) for developing preeclampsia,PP13 [4]; 21 days aspirin,3.3
same,Odds ratio (by quartiles) for developing preeclampsia,PP13 [4]; 21 days aspirin,3.2
same,Frequency of 1st quartile cases,PP13 [4]; 21 days aspirin,14/50
same,Frequency of 2nd quartile cases,PP13 [4]; 21 days aspirin,30/50
same,Frequency of 3rd quartile cases,PP13 [4]; 21 days aspirin,5/50
same,Numbers of patients in the 2nd and 3rd PP13 quartiles compared to the first quartile,PP13 [4]; aspirin for 2 or 3 weeks,elevated significantly
same,Outcome: Normal (number of women),[5]; 14 days aspirin,26 Normal
same,Outcome: Preeclampsia (number of women),[5]; 14 days aspirin,24 Preeclampsia
same,Outcome: Normal (number of women),[5]; 21 days aspirin,33 Normal
same,Outcome: Preeclampsia (number of women),[5]; 21 days aspirin,18 Preeclampsia
same,"Number of preeclampsia cases, treated vs. untreated groups",[5]; aspirin for 2 or 3 weeks,significantly lower
same,Therapeutic Effectiveness on PP13 release from placenta explants,[1]; [7],74%
same,Therapeutic Effectiveness on PP13 release from placenta explants,[1]; [8],40%
aprotinin,Effect on PP13 release,"[2]; HELLP explants, normoxia and high Mg (FIG. 11B)",almost back to normal
vitamin E,Effect on PP13,"PP13 [6]; 16-20 weeks, vitamin E",no significant effect
same,Effect on PP13 level/release,"PP13 [6]; cases of preeclampsia, 6-10 weeks, early application of vitamin E",doubles PP13 release towards the normal level
same,Effect on PP13 release,"PP13 [6]; normal patients, 6-10 weeks, vitamin E",without affecting PP13 release
same,Effect on PP13 release,"PP13 [6]; preeclamptic women, 24-28 weeks, vitamin E",reduces PP13 release back to the normal level
same,PP13 slope (1st-to-2nd trimester),PP13 [6]; women at high risk treated daily with vitamin E,lower slope
same,Therapeutic Effectiveness on PP13 release from placenta explants,[1]; [7],30%
same,Therapeutic Effectiveness on PP13 release from placenta explants,[1]; [8],0%
"O=O [Oxygen, oxygen]",Increase of PP13 release under 20% oxygen compared to 6% oxygen,"[3]; 3 high risk women, no vitamin C",~2 factor
same,PP13 (pg/ml) release,"[3]; Case 1, normal risk, 20% oxygen (hyperoxia), no vitamin C","14,250 pg/ml"
same,PP13 (pg/ml) release,"[3]; Case 2, normal risk, 20% oxygen (hyperoxia), no vitamin C","15,500 pg/ml"
same,PP13 (pg/ml) release,"[3]; Case 3, high-risk (preeclampsia), 20% oxygen (hyperoxia), no vitamin C","5,000 pg/ml"
same,PP13 (pg/ml) release,"[3]; Case 3, high-risk (preeclampsia), 20% oxygen (hyperoxia), no vitamin C, listed as oxygen",5000 pg/mL
same,PP13 (pg/ml) release,"[3]; Case 4, high-risk (preeclampsia), 20% oxygen (hyperoxia), no vitamin C","4,300 pg/ml"
same,PP13 (pg/ml) release,"[3]; Case 5, high-risk (preeclampsia), 20% oxygen (hyperoxia), no vitamin C","7,900 pg/ml"
same,Effect on PP13 release,"[2]; explants from HELLP cases, 20% vs 6% oxygen, 48 hours, listed as O2",reduced by 20% O2 to below the normal level
same,Effect on PP13 release,"[2]; explants from HELLP cases, 20% vs 6% oxygen, 48 hours, listed as hyperoxia",almost complete halt in PP13 release
same,Effect on PP13 release,"[2]; explants from normal women, 20% vs 6% oxygen, 48 hours",no effect
same,Effect on PP13 release,"[2]; explants from normal women, 20% vs 6% oxygen, 48 hours, listed as hyperoxia",remained at the same level
same,Effect on PP13 release,"[2]; explants from preeclampsia women, 20% vs 6% oxygen, 48 hours",decreased significantly
same,Effect on PP13 release,"[2]; explants from preeclampsia women, 20% vs 6% oxygen, 48 hours, listed as hyperoxia",significantly less PP13 release
heparin,Therapeutic Effectiveness on PP13 release from placenta explants,[1]; [7],56%
same,Therapeutic Effectiveness on PP13 release from placenta explants,[1]; [8],20%
same,Effect on PP13 release,[2]; hyperoxia and normal Mg (FIG. 11C),almost back to normal
